From US20090274687A1, “ATTENUATION OF HYPOXIA INDUCED CARDIOVASCULAR DISORDERS” (University Of Miami, priority 2008, published 2009)
“Also recorded” adds a separate entry of the source.

Columns and labels:
CXCR4 receptor = settings: cited from earlier work
[1] = system: FVB/NJ neonatal mice exposed to normobaric hypoxia (hypoxia-induced pulmonary hypertension); experiment: Prevention: neonatal mice exposed to 1 wk hypoxia, daily intraperitoneal treatment postnatal day 1-7; format: in vivo
Description: Animal Care and Treatment: Sixty Eight FVB/NJ neonatal mice exposed to normobaric hypoxia (10% O2) or normoxia (20.9% O2) for one week were randomly assigned to receive daily intraperitoneal injections of normal saline (PL; n=19), or AMD3100 (7.5 mg/kg; n=10) or anti-SDF-1 antibody ([…]; n=19) for seven days, from postnatal day 1-7.

c1cc(CN2CCCNCCNCCCNCC2)ccc1CN1CCCNCCNCCCNCC1 [AMD3100, 1,1′-[1,4-phenylenebis(methylene)]bis-1,4,8,11-tetraazacyclotetradecane]
affinity relative to its affinity in CXCR4 (CXCR4 receptor; after introduction of Glu VII:06 and removal of Lys VII:02): ≤ 10 fold | increase in affinity of AMD3100 (CXCR4 receptor; introduction of a Glu at position VII:06 and removal of a neutralizing Lys residue at position VII:02): 1000 fold | vascular remodeling (medial wall thickness), morphometric analysis of pulmonary arterioles ([1]; 1 wk hypoxia, 20-50 μm diameter arterioles, vs Hyp PL, FIG. 5D): marked decrease; also recorded: markedly attenuated | RV c-kit expression ([1]; 1 wk hypoxia, right ventricle, vs Hyp PL, FIG. 4C): significantly decreased | RV Sca-1 expression ([1]; 1 wk hypoxia, right ventricle, vs Hyp PL, FIG. 4D): significantly decreased | RV Isl-1 expression ([1]; 1 wk hypoxia, right ventricle, vs Hyp PL, FIG. 4E): significantly decreased | protein expression of stem cell markers (c-kit, Sca-1) in lungs and right ventricles ([1]; 1 wk hypoxia, to baseline or near baseline values, FIGS. 4A-4E): significantly decreased | lung c-kit expression ([1]; 1 wk hypoxia, vs Hyp PL, to near baseline values, FIG. 4A): significantly decreased | lung Sca-1 expression ([1]; 1 wk hypoxia, vs Hyp PL, to near baseline values, FIG. 4B): significantly decreased | RVSP ([1]; 1 wk hypoxia, vs placebo, FIG. 5A): close to baseline values; also recorded: significantly attenuated | RV Hypertrophy (RV/LV+S) ([1]; 1 wk hypoxia, vs placebo, FIG. 5B): close to baseline values; also recorded: significantly attenuated | number of muscularized pulmonary arterioles (α-smooth muscle actin staining) ([1]; 1 wk hypoxia, vs placebo, FIG. 5C): decreased | percentage of non-muscularized pulmonary arterioles ([1]; 1 wk hypoxia, vs placebo, FIG. 5E): significantly increased | mean linear intercept (MLI), lung alveolarization ([1]; 1 wk hypoxia, vs placebo, FIG. 5F): significantly decreased | number of PCNA+ cells in the pulmonary vasculature (cell proliferation) ([1]; hypoxic mouse pups vs Hyp PL, FIGS. 6A-6B): significantly attenuated | number of TUNEL+ cells in the pulmonary vasculature (apoptosis) ([1]; hypoxic mouse pups vs Hyp PL, FIGS. 6D-6E): significantly attenuated | phosphorylated-Akt expression in lungs ([1]; treated mouse pups vs placebo, FIG. 6C): marked decrease
